Reference: patent US20200072711A1, “FLUORESCENT ENDOPLASMIC RETICULUM TRACKERS FOR LIVE CELL IMAGING OF PATHOGENIC YEAST” (Ramot at Tel Aviv University Ltd., priority 2018, published 2020)
≈ marks a conversion by molar mass, not a printed value. Entries after “also recorded” stand apart in the source; their conditions may differ.

Legend:
[1] = system: tested panel of Candida strains; test: Live cell imaging, ER labeling; type: cell-based; details: panel of Candida strains (C. albicans and C. glabrata)
Procedure: (§1) Growth conditions for live cell imaging. Cells were grown to log phase in liquid YPD overnight at 30° C. in a 10 ml tube. Cells were diluted 1:10 and then incubated for 2 h at 30° C. to log phase.
(§2) Cell staining. The fluorescent probes were added to a final concentration of 10 μM for probes 1-6 to cells from a log phase culture grown in YPD broth media at 30° C. Cells were then incubated in the dark for a total of 60 min. Before imaging, cells were washed once with PBS buffer. For ER-tracker dyes, DiOC6 (1 μg/mL) and BODIPY™ TR Glibenclamide (1 μM), staining cells were incubated in a prepared Hanks' Balanced Salt Solution at 37° C. for 5 min and 30 min, respectively. For ER-tracker Blue-White DPX (1 μM), staining cells were incubated in YPD for 30 min at 30° C. For mitochondrial staining the previously reported Cy5-based mitochondrial dye was used (1 μg/mL). For staining, cells were incubated in YPD in the presence of dye for 5 min at 30° C. Cells were then washed with PBS buffer once.
Live cell imaging. Candida cells were resuspended in PBS buffer and 2 μL were placed on a glass slides and covered with glass coverslips. C. glabrata (ATCC 2001) cells treated with probes 1-6, all tested Candida cells treated with ER-tracker Blue-White DPX and inter-organelle interaction study were imaged on a MORE imaging system (TILL Photonics GmbH) with an Olympus UPlanApo 100X 1.3 NA oil immersion objective. The bandpass filter sets used to image probes 1-3 were excitation 427/10 nm and emission 510/20 nm. The bandpass filter sets used to image probes 4-6 were excitation 485/20 nm and emission 525/30 nm. The bandpass filter sets used to image ER-tracker Blue-White DPX were excitation 390/40 nm and emission 525/30 nm. The bandpass filter sets used to image Cy5-based mitochondrial dye were excitation 560/25 nm and emission 684/24 nm. C. albicans cells (ATCC 24433 and SN152) and C. glabrata (ATCC 66032) treated with probes 1-6 were imaged on a Nikon Ti microscope equipped with a Plan Apo VC 100X oil objective and a Zyla 5.5 sCMOS camera (Andor) run by NIS elements Ar software. The bandpass filter sets used to image probes 1-3, and DiOC6-stained cells were excitation 440 nm and emission 480/40 nm. The bandpass filter sets used to image cells treated with probes 4-6, excitation 470 nm and emission 525/50 nm were used. For Eno1-mCherry, excitation 585 nm and emission 630/75 nm were used. To optimize the probes, the effects of the concentration (1, 5 and 10 μM), incubation time (5, 30, 60 and 120 min) and media (YPD and HBSS) were investigated. Images were processed using ImageJ program. The smoothed imaged were generated using the convolve filter (Normalize Kernel).

[2] = commercial ER-trackers; cited from earlier work
C. albicans cells = test: Live cell imaging, ER labeling; type: cell-based, Candida albicans
Procedure: as §1, §2
(§3) Live cell imaging. Candida cells were resuspended in PBS buffer and 2 μL were placed on a glass slides and covered with glass coverslips. […]

C. glabrata strains = test: Live cell imaging, ER labeling; type: cell-based, Candida glabrata; details: C. glabrata yeast cells
Procedure: as §1, §2, §3

C. albicans SN152 [3] = test: Live cell imaging, ER labeling; type: cell-based, Candida albicans
Procedure: as §1, §2, §3

C. albicans SN152 [4] = test: Minimal inhibitory concentration broth double-dilution assay; type: cell-based; details: Candida albicans, 24 h, 37° C., Casitone
Procedure: (§4) Minimal inhibitory concentration broth double-dilution assay. All strains were tested using the double-dilution method in 96-well plates (Corning). Yeast strains were grown in Casitone growth medium. Starter cultures were incubated for 24 h (37° C., 5% CO2, aerobic conditions) and then diluted 1:100 into fresh medium. Compounds dissolved in ethanol or in DMSO were added to the casitone broth to form the mother liquor (32 μL stock solution in 1218 μL of casitone) at the starting concentration of 64 μg/mL. Next, 100 μL of serial double dilutions of compounds in Casitone ([…], and 0.007 μg/mL) were prepared in flat-bottomed 96-well microplates (Corning). Control wells with no compounds, and wells without yeast cells containing each tested concentration of the compounds (blanks), were also prepared. An equal volume (100 μL) of yeast suspensions in Casitone broth that was prepared as follows: 900 mL doubly distilled H2O, 9 g Casitone (bacto-casitone), 5 g yeast extract, 11.5 g sodium citrate dihydrate, 20 g glucose. The yeast suspension was added to each well for a final volume of 200 μL. The ethanol or the DMSO concentrations ranged from 0.0012% to 1.3%. The final inoculum was between 5×10^4 colony-forming unit (CFU)/mL and 5×10^5 CFU/mL; identical results were obtained when using 5×10^3 CFU/mL as a final inoculum. After incubation for 24 h at 37° C. in 5% CO2, MTT (3-[4,5-dimethylthiazole-2-yl]-2,5-diphenyltetrazolium bromide; 50 μL of a 1 mg/mL solution in H2O) was added to each well followed by additional incubation at 37° C. for 2 h. Each concentration was tested in triplicate, and results were confirmed by two independent sets of experiments.

C. albicans ATCC 24433 = test: as above; type: cell-based; details: Candida albicans, ATCC24433, 24 h, 37° C., Casitone
Procedure: as §4

C. glabrata ATCC 2001 = test: as above; type: cell-based, Candida glabrata; details: Nakaseomyces glabratus, ATCC2001, 24 h, 37° C., Casitone
Procedure: as §4

C. glabrata ATCC 66032 = test: as above; type: cell-based, Candida glabrata; details: Nakaseomyces glabratus, ATCC66032, 24 h, 37° C., Casitone
Procedure: as §4

[5] = Absorption and emission spectra of fluorescent probes; type: physicochemical; details: 10 μM in PBS, pH=7.4; for emission maxima: excitation at 420 nm
Procedure: FIGS. 4A-4F show absorption and emission spectra of probes 1-6 (10 μM in PBS, pH=7.4), respectively. Emission spectrum was measured after excitation at 420 nm.
General chemistry methods and instrumentation. ^1H-NMR spectra (including 1D-TOCSY) were recorded on BrukerAvance™ 400 or 500 MHz spectrometers, and chemical shifts (reported in ppm) were calibrated to CDCl3 (d=7.26) when CDCl3 was the solvent, or to CD3OD (d=3.31) when CD3OD was the solvent. ^13C-NMR spectra were recorded on BrukerAvance™ 400 or 500 MHz spectrometers at 100 or 125 MHz. ^19F-NMR spectra were recorded on BrukerAvance™ 400 or 500 MHz spectrometers at 375 or 470 MHz. Multiplicities are reported using the following abbreviations: b=broad, s=singlet, d=doublet, t=triplet, q=quartet. Coupling constants (J) are given in Hertz. HRESI mass spectra were measured on a Waters Synapt instrument. Chemical reactions were monitored by TLC (Merck, Silica gel 60 F254). Visualization was achieved using a cerium molybdate stain (5 g (NH4)2Ce(NO3)6, 120 g (NH4)6Mo7O24·4H2O, 80 mL H2SO4, 720 mL H2O) or with UV lamp. Unless otherwise stated, all chemicals were obtained from commercial sources. Compounds were purified using Geduran® Si 60 chromatography (Merck). The SpectraMax i3x Platform spectrophotometer from Molecular Devices was used for the measurement of the excitation and absorbance spectra of the fluorescent probes.
We first measured the absorption and emission spectra of fluorescent probes 1-6. […] This 70-nm redshift effect is attributed to the effect of the halogen atoms in the phenyl ring segment of these molecules: a difluorophenyl ring in probe 2 and a dichlorophenyl in probe 3.

[6] = system: all tested Candida strains; test: MIC assay, over the panel; type: cell-based
Procedure: as §4, with “The final inoculum was between 5×10^4 colony-forming unit (CFU)/mL and 5×10^5 CFU/mL; identical results were obtained when using 5×10^3 CFU/mL as a final inoculum. After incubation for 24 h at 37° C. in 5% CO2, MTT (3-[4,5-dimethylthiazole-2-yl]-2,5-diphenyltetrazolium bromide; 50 μL of a 1 mg/mL solution in H2O) was added to each well followed by additional incubation at 37° C. for 2 h. Each concentration was tested in triplicate, and results were confirmed by two independent sets of experiments.” left out
The ER-labeling properties were evaluated by incubating the compounds with representative strains of C. albicans and C. glabrata. […]

Structure (SMILES) | staining pattern [1] | MIC (C. albicans SN152 [4]) [µg/mL] | MIC (C. albicans ATCC 24433) [µg/mL] | MIC (C. glabrata ATCC 2001) [µg/mL] | MIC (C. glabrata ATCC 66032) [µg/mL] | other results
COC(=O)CCC1=[N+]2C(=Cc3c(C)cc(C)n3[B-]2(F)F)C=C1 [BODIPY-methyl ester] | the entire cytoplasm was labeled in a non-specific pattern | – | – | – | – | –
CN(C)c1ccc(-c2cnc(-c3ccc(S(=O)(=O)NCCNC(=O)c4c(F)c(F)c(F)c(F)c4F)cc3)o2)cc1 [Blue-White DPX] | stained Candida glabrata cells only; also recorded: non-specific labeling of additional intracellular compartments, such as lipid droplets, was observed | – | – | – | – | emission (em) [2]: 430-640 nm; excitation (ex) [2]: 374 nm; staining pattern (C. albicans cells): non-specific staining of the cytoplasm; staining pattern (C. glabrata strains): label the ER; also recorded: a circular pattern around the nuclear envelope with peripheral cortical extensions reminiscent of the ER structure was clearly visible
CCCCCCN1C(=CC=Cc2oc3ccccc3[n+]2CCCCCC)Oc2ccccc21.[I-] [DiOC6, 3,3′-dihexyloxacarbocyanine iodide] | more significant in C. albicans than in C. glabrata yeast cells; also recorded: non-specific labeling of additional intracellular compartments, such as lipid droplets, was observed | – | – | – | – | emission (em) [2]: 500 nm; excitation (ex) [2]: 480 nm; staining pattern (C. albicans SN152 [3]): non-specific staining of other cellular compartments such as lipid droplets was also observed
OC(Cn1cncn1)(Cn1cncn1)c1ccc(F)cc1F [FLC, fluconazole, reference compound] | – | 0.5 (≈ 1.63 µM) | 0.5 (≈ 1.63 µM) | 64 (≈ 209 µM) | 64 (≈ 209 µM) | –
CCC(C)n1ncn(-c2ccc(N3CCN(c4ccc(OCC5COC(Cn6cncn6)(c6ccc(Cl)cc6Cl)O5)cc4)CC3)cc2)c1=O (stereo not drawn) [ITR, itraconazole, reference compound] | – | 0.007 (≈ 0.00992 µM) | 0.015 (≈ 0.0213 µM) | 4 (≈ 5.67 µM) | 0.5 (≈ 0.709 µM) | –
CCN(CC)c1ccc2cc(C(=O)NCC(O)(Cn3cncn3)c3ccc(F)cc3F)c(=O)oc2c1 (stereo not drawn) [Probe 1] | – | 0.007 (≈ 0.0141 µM) | 0.03 (≈ 0.0603 µM) | 16 (≈ 32.2 µM) | 8 (≈ 16.1 µM) | –
CCN(CC)c1ccc2cc(C(=O)NCC(O)(Cn3ccnn3)c3ccc(F)cc3F)c(=O)oc2c1 (stereo not drawn) [Probe 2] | the distinct nuclear envelope and cortical structure of the ER were clearly observed | > 64 | > 64 | > 64 | > 64 | absorption spectrum maxima [5]: 430 nm; emission maxima [5]: 480 nm; MIC [6]: ≥ 64 µg/mL
CCN(CC)c1ccc2cc(C(=O)NCC(O)(Cn3ccnn3)c3ccc(Cl)cc3Cl)c(=O)oc2c1 (stereo not drawn) [Probe 3] | the distinct nuclear envelope and cortical structure of the ER were clearly observed | > 64 | > 64 | > 64 | > 64 | absorption spectrum maxima [5]: 430 nm; emission maxima [5]: 550 nm; MIC [6]: ≥ 64 µg/mL
CCOC(=O)c1cc2ccc(N(CC)CC)cc2oc1=O [ethyl ester of 7-(diethyl)-aminocoumarin, 7-(diethyl)-aminocoumarin ethyl ester] | did not stain the yeast cell interior of any of the tested Candida strains | – | – | – | – | –
